Reference: publication PMC5517430, “2,3,7,8-Tetrachlorodibenzo-p-dioxin (TCDD)-elicited effects on bile acid homeostasis: Alterations in biosynthesis, enterohepatic circulation, and microbial metabolism” (Scientific Reports, 2017)

Tests used:
Format in all cases: in vivo, mouse
Slc6a6 = experiment: Hepatic RNA-Seq differential gene expression (fold change, P1(t), ED50, BMD, BMDL); conditions: C57BL/6, mouse, liver, oral; male mice, TCDD every 4 d for 28 d
Method: (§1) Frozen ileal epithelium scrapings and liver samples were homogenized in TRIzol (Ambion, Waltham, MA) using a Mixer Mill 300 tissue homogenizer (Retsch, Germany) and total RNA was isolated as previously described. RNA was quantified using a Nano-drop spectrophotometer (Thermo Scientific, Wilmington, DE) at 260 nm, and purity was assessed using the A260/A280 ratio and the Caliper LabChip GX (Perkin Elmer, Waltham, MA).
(§2) Dose-dependent gene expression was examined using RNA-Seq performed at the MSU Research Technology Support Facility (RTSF) Genomics Core (rtsf.natsci.msu.edu/genomics). Ileal libraries from three independent biological replicates (n = 3) were prepared using the Ovation Mouse RNA-Seq System 1–16 sample preparation kit (NuGen, San Carlos, CA), with an additional DNase step. Libraries were quantified and sequenced as previously described, using a read depth of ~30 M per sample[33], [67]. Quality was determined using FASTQC v0.11.3 and adaptor sequences were removed using Trimmomatic v0.33. Reads were mapped to the mouse reference genome (GRCm38 release 81) using Bowtie2 v2.2.6 and TopHat2 v2.1.0. Alignments were converted to SAM format using SAMTools v1.2.0. For TCDD-mediated differential gene expression, fold changes were calculated relative to vehicle controls. Hepatic RNA-Seq analysis was previously published. Genes were considered differentially expressed if |fold change| ≥ 1.5 and statistical P1(t) value ≥ 0.8 at one or more doses. RNA-Seq datasets for the ileal epithelium and liver were deposited in the Gene Expression Omnibus (GEO; accession number GSE89430 and GSE87519, respectively). The RNA-Seq results (fold changes, P1(t) values) for each gene discussed in the manuscript have been compiled in Supplementary Table S1. […] Estimation of benchmark dose (BMD) and BMD lower confidence limit (BMDL) was performed using BMDExpress[69] as previously described, and has been included in Supplementary Table S1.

Abcc4 = experiment: as above; conditions: C57BL/6, mouse, liver, oral; male mice, 30 µg/kg TCDD every 4 d for 28 d
Method: as §1, §2

Cyp39a1 = experiment: as above; conditions: C57BL/6, mouse, liver, oral; male mice, TCDD every 4 d for 28 d
Method: as §1, §2

[1] = system: intestine of male C57BL/6 mice; experiment: Sugar probe intestinal para-cellular permeability (UPLC-MS/MS of urine); conditions: 30 µg/kg TCDD every 4 d, 26 d after initial dose
Method: At 26d after the initial dose (PND54), mice were fasted for 4 h (without access to food or water) prior to oral gavage with 150 µL of a solution containing 100 mg sucrose, 12 mg lactulose, 8 mg mannitol, and 6 mg sucralose. Urine from each mouse was collected over a 5 h period, flash frozen, and combined prior to analysis. Urine was diluted in 95% acetonitrile/5% water: 100-fold for mannitol detection, 200-fold for sucrose and lactulose detection, and 500-fold for sucralose detection. Sugar probe recovery was measured using ultra high performance liquid chromatography-tandem mass spectrometry (UPLC-MS/MS), performed at the MSU RTSF Mass Spectrometry and Metabolomics Core (https://rtsf.natsci.msu.edu/mass-spectrometry/). Diluted urine samples were injected onto an Acquity UPLC BEH Amide column (1.7 µm, 2.1 × 100 mm) (Waters, Milford, MA) maintained at 50 °C on a Waters ACQUITY UPLC systems (Waters). Mobile phase A was 50 mM ammonium acetate buffer (pH = 9.6) and mobile phase B was acetonitrile. […]
Data analysis including peak integration was performed using MAVEN[75]. […] Fractional excretion of each probe was calculated using: (probe concentration from MS X total urine volume excreted)/probe input. […]

bile acid mixture = experiment: Hydrophobicity index (HIx) of bile acid mixtures in liver, serum and feces; conditions: male mice
Excerpt: In general, bile acid toxicity increases with hydrophobicity, [39], which depends on ionization, hydroxylation, and conjugation (taurine, glycine, sulfate, glucoronate)[40]. The potential toxicity of a bile acid mixture can be estimated by calculating the hydrophilic-hydrophobic balance using the hydrophobicity index (HIx) of each bile acid species in the mixture, as described by Heuman[41]. […] Consequently, the shift towards increased hydrophobicity is primarily driven by a decrease in the relative abundance of T-α-MCA, a highly hydrophilic species.

SMILES: Clc1cc2c(cc1Cl)Oc1cc(Cl)c(Cl)cc1O2 [TCDD, 2,3,7,8-tetrachlorodibenzo-p-dioxin]
- fold induction at 28 d (Slc6a6): 1.8
- fold induction at 28 d (Abcc4): 58.1
- fold induction at 28 d (Cyp39a1): 2.1
- Permeability of the small intestine (lactulose-to-mannitol ratio) [1]: unaffected
- Shift of fecal bile acid mixture HIx (bile acid mixture; feces, TCDD): moderate increase in hydrophobicity
- Shift of hepatic bile acid mixture HIx (bile acid mixture; liver, 3–30 µg/kg TCDD every 4 d for 28 d): toward greater hydrophobicity
- Shift of serum bile acid mixture HIx (bile acid mixture; serum, TCDD every 4 d for 28 d): more hydrophilic
